According to ChEMBL document CHEMBL5614413, “Design, synthesis and biological evaluation of amphiphilic benzopyran derivatives as potent antibacterial agents against multidrug-resistant bacteria” (Eur J Med Chem, 2024):
Converted amounts (≈) assume the structure as drawn. The source made the active and inactive calls. The rule behind the calls is not given here.

Legend:
Staphylococcus aureus [1] = test: Antibacterial activity against methicillin-resistant Staphylococcus aureus ATCC 43300 infected in sepsis mouse model assessed as decrease in TNF-alpha level in blood at 5 to 10 mg/kg pre-infected with bacteria for 1 hrs followed by continuous compound administration at 12 hrs intervals for 2 days; format: functional, organism-based; conditions: dose 5-10 mg/kg, time 2.0 day
[2] = test system: Staphylococcus epidermidis; test: Antibacterial activity erythromycin-susceptible Staphylococcus epidermidis ATCC 12228; format: functional
Acinetobacter baumannii = test: Antibacterial activity against Acinetobacter baumannii ATCC 19606; format: functional
Escherichia coli = test: Antibacterial activity against penicillin-susceptible Escherichia coli ATCC 25922; format: functional
Pseudomonas aeruginosa = test: Antibacterial activity against penicillin-susceptible Pseudomonas aeruginosa ATCC 27853; format: functional
[3] = Selectivity index, ratio of HC50 for hemolytic activity in sheep RBC to MIC for antibacterial activity against methicillin-resistant Staphylococcus aureus ATCC 43300; format: toxicity; conditions: sheep red blood cells (erythrocytes), read-out: Selectivity Index
Staphylococcus aureus [4] = test: Selectivity ratio of MBC for bactericidal activity against methicillin-resistant Staphylococcus aureus ATCC 43300 preincubated with 50% human plasma upto 6 hrs to MBC for bactericidal activity against methicillin-resistant Staphylococcus aureus ATCC 43300; format: functional
Staphylococcus aureus [5] = test: Bactericidal activity against methicillin-resistant Staphylococcus aureus ATCC 43300 in presence of 50% human serum by Mueller Hinton broth based assay; format: functional
Staphylococcus aureus [6] = test: Bactericidal activity against methicillin-resistant Staphylococcus aureus ATCC 43300 in presence of 50% human plasma by Mueller Hinton broth based assay; format: functional
Staphylococcus aureus [7] = test: Bactericidal activity against methicillin-resistant Staphylococcus aureus ATCC 43300 by Mueller Hinton broth based assay; format: functional; conditions: time <= 6 hrs
Staphylococcus aureus [8] = test: Bactericidal activity against methicillin-resistant Staphylococcus aureus ATCC 43300 assessed as reduction in bacterial growth; format: functional, organism-based
Cell membrane [9] = test: Disruption of cell membrane in methicilin-resistant Staphylococcus aureus ATCC 43300 assessed as appearance of wrinkled cell membrane by scanning electron microscopic analysis; format: cell membranes
Cell membrane [10] = test: Disruption of cell membrane in methicilin-resistant Staphylococcus aureus ATCC 43300 assessed as appearance of collapsed cell membrane by scanning electron microscopic analysis; format: cell membranes
Cell membrane [11] = test: Disruption of cell membrane integrity in methicillin-resistant Staphylococcus aureus ATCC 43300 assessed as appearance of blue fluorescence by DAPI/PI staining based microscopic analysis; format: cell membranes
Cell membrane [12] = test: Disruption of cell membrane integrity in methicillin-resistant Staphylococcus aureus ATCC 43300 assessed as appearance of red fluorescence by DAPI/PI staning based microscopic analysis; format: cell membranes
Cell membrane [13] = test: Induction of cytoplasmic membrane depolarization in methicillin-resistant Staphylococcus aureus ATCC 43300 assessed as increase in fluorescence intensity by DiSC3(5) dye-based fluorescence assay; format: cell membranes
Cell membrane [14] = test: Induction of cell membrane disruption in methicillin-resistant Staphylococcus aureus ATCC 43300 assessed as increase in DNA leakage; format: cell membranes
Cell membrane [15] = test: Induction of cell membrane disruption in methicillin-resistant Staphylococcus aureus ATCC 43300 assessed as increase in protein leakage; format: cell membranes
Staphylococcus aureus [16] = test: Antibacterial activity against methicillin-resistant Staphylococcus aureus ATCC 43300 infected in sepsis mouse model assessed as reduction in bacterial load in blood at 5 mg/kg pre-infected with bacteria for 1 hrs followed by continuous compound administration at 12 hrs intervals for 2 days (reference value: 3.69 log10CFU/ml); format: functional; conditions: time 2 day
Staphylococcus aureus [17] = test: Antibacterial activity against methicillin-resistant Staphylococcus aureus ATCC 43300 infected in sepsis mouse model assessed as reduction in bacterial load in kidney at 5 mg/kg pre-infected with bacteria for 1 hrs followed by continuous compound administration at 12 hrs intervals for 2 days (reference value: 6.75 log10CFU/g); format: functional; conditions: time 2 day
Staphylococcus aureus [18] = test: Antibacterial activity against methicillin-resistant Staphylococcus aureus ATCC 43300 infected in sepsis mouse model assessed as reduction in bacterial load in blood at 10 mg/kg pre-infected with bacteria for 1 hrs followed by continuous compound administration at 12 hrs intervals for 2 days (reference value: 3.69 log10CFU/ml); format: functional; conditions: time 2 day
Staphylococcus aureus [19] = test: Antibacterial activity against methicillin-resistant Staphylococcus aureus ATCC 43300 infected in sepsis mouse model assessed as reduction in bacterial load in liver at 10 mg/kg pre-infected with bacteria for 1 hrs followed by continuous compound administration at 12 hrs intervals for 2 days (reference value: 7.16 log10CFU/g); format: functional; conditions: time 2 day
Staphylococcus aureus [20] = test: Antibacterial activity against methicillin-resistant Staphylococcus aureus ATCC 43300 infected in sepsis mouse model assessed as reduction in bacterial load in spleen at 10 mg/kg pre-infected with bacteria for 1 hrs followed by continuous compound administration at 12 hrs intervals for 2 days (reference value: 7.45 log10CFU/g); format: functional; conditions: time 2 day
Staphylococcus aureus [21] = test: Antibacterial activity against methicillin-resistant Staphylococcus aureus ATCC 43300 infected in sepsis mouse model assessed as reduction in bacterial load in kidney at 10 mg/kg pre-infected with bacteria for 1 hrs followed by continuous compound administration at 12 hrs intervals for 2 days (reference value: 6.75 log10CFU/g); format: functional; conditions: time 2 day
Staphylococcus aureus [22] = test: Antibacterial activity against methicillin-resistant Staphylococcus aureus ATCC 43300 infected in sepsis mouse model assessed as reduction in number of surviving bacterial colonies in spleen at 5 mg/kg pre-infected with bacteria for 1 hrs followed by continuous compound administration at 12 hrs intervals for 2 days relative to control; format: functional; conditions: time 2 day
Staphylococcus aureus [23] = test: Antibacterial activity against methicillin-resistant Staphylococcus aureus ATCC 43300 infected in sepsis mouse model assessed as reduction in number of surviving bacterial colonies in kidney at 5 mg/kg pre-infected with bacteria for 1 hrs followed by continuous compound administration at 12 hrs intervals for 2 days relative to control; format: functional; conditions: time 2 day
Staphylococcus aureus [24] = test: Antibacterial activity against methicillin-resistant Staphylococcus aureus ATCC 43300 infected in sepsis mouse model assessed as reduction in pathological damages in liver at 5 to 10 mg/kg pre-infected with bacteria for 1 hrs followed by continuous compound administration at 12 hrs intervals for 2 days by H and E staining based analysis; format: functional, organism-based; conditions: dose 5-10 mg/kg, time 2.0 day
Staphylococcus aureus [25] = test: Antibacterial activity against methicillin-resistant Staphylococcus aureus ATCC 43300 infected in sepsis mouse model assessed as reduction in pathological damages in kidney at 5 to 10 mg/kg pre-infected with bacteria for 1 hrs followed by continuous compound administration at 12 hrs intervals for 2 days by H and E staining based analysis; format: functional, organism-based; conditions: dose 5-10 mg/kg, time 2.0 day
Staphylococcus aureus [26] = test: Antibacterial activity against methicillin-resistant Staphylococcus aureus ATCC 43300 infected in sepsis mouse model assessed as reduction in pathological damages in spleen at 5 to 10 mg/kg pre-infected with bacteria for 1 hrs followed by continuous compound administration at 12 hrs intervals for 2 days by H and E staining based analysis; format: functional, organism-based; conditions: dose 5-10 mg/kg, time 2.0 day
Staphylococcus aureus [27] = test: Bactericidal activity against methicillin-resistant Staphylococcus aureus ATCC 43300 assessed as bacterial killing at 16 microg/ml measured after 8 hrs by time-kill kinetics analysis relative to control; format: functional; conditions: dose 16 µg/ml
Staphylococcus aureus [28] = test: Inhibition of biofilm formation in methicillin-resistant Staphylococcus aureus ATCC 43300; format: functional, organism-based; conditions: dose 2-32 µg/ml
Staphylococcus aureus [29] = test: Induction of ROS production in methicillin-resistant Staphylococcus aureus ATCC 43300 assessed as fold increase in ROS level at 32 microg/ml by DCFH-DA staining based analysis; conditions: dose 32 µg/ml

In the case of `CCCCN(CCCC)CCCNCCCOc1c(C(C)=O)ccc2c1C=CC(C)(CCC=C(C)C)O2` (configuration not stated), the Activity (Staphylococcus aureus [1]) is reported as “Active”, the MIC [2] is reported as 1 µg/mL (≈ 1.95 µM) and the MIC (Acinetobacter baumannii) is reported as 2 µg/mL (≈ 3.9 µM). It also gave an MIC (Escherichia coli) of 4 µg/mL (≈ 7.8 µM), an MIC (Pseudomonas aeruginosa) of 32 µg/mL (≈ 62.4 µM) and a selectivity ratio [3] of 65.6. The selectivity ratio (Staphylococcus aureus [4]) was under 2, the MBC (Staphylococcus aureus [5]) was 16 µg/mL and the MBC (Staphylococcus aureus [6]) was 16 µg/mL. The MBC (Staphylococcus aureus [7]) was 8 µg/mL (≈ 15.6 µM), the Activity (Staphylococcus aureus [8]) was “Dose-Dependent Effect” and the Activity (Cell membrane [9]) was “Active”. The Activity (Cell membrane [10]) was “Active”, the Activity (Cell membrane [11]) was “Active” and the Activity (Cell membrane [12]) was “Active”. For the same molecule, the Activity (Cell membrane [13]) was “Dose-Dependent Effect”, the Activity (Cell membrane [14]) was “Active” and the Activity (Cell membrane [15]) was “Active”. It also gave an Activity (Staphylococcus aureus [16]) of 1.1 log10CFU/ml, an Activity (Staphylococcus aureus [17]) of 2.09 log10CFU/g and an Activity (Staphylococcus aureus [18]) of 1.46 log10CFU/ml. It also gave an Activity (Staphylococcus aureus [19]) of 2.69 log10CFU/g, an Activity (Staphylococcus aureus [20]) of 2.24 log10CFU/g and an Activity (Staphylococcus aureus [21]) of 2.84 log10CFU/g. The Activity (Staphylococcus aureus [22]) was 99%, the Activity (Staphylococcus aureus [23]) was 99.2% and the Activity (Staphylococcus aureus [24]) was “Active”. For the same molecule, the Activity (Staphylococcus aureus [25]) was “Active”, the Activity (Staphylococcus aureus [26]) was “Active” and the Activity (Staphylococcus aureus [27]) was 100%. The inhibition (Staphylococcus aureus [28]) was “Dose-Dependent Effect” and the “fold change (FC)” value (Staphylococcus aureus [29]) was 5.
